# Data reported in US12383653B2, “Neutral multidomain peptide hydrogels and uses thereof” (William Marsh Rice University, priority 2018, dated 2025).
# Entries after “also recorded” stand apart in the source; their conditions may differ. Where a SMILES comes first, the peptide text is derived from it. [ ]: non-standard residue; d: D form. Hyp = O=C(O)[C@@H]1C[C@@H](O)CN1
# Columns and labels:
# [1] = Hydrogel formation (inverted-vial test, pH, ionic strength, buffers); type: physicochemical; conditions: for hydrogel formation at acidic, neutral and basic pH: 1% by weight, pH adjusted with HCl or NaOH, inverted-vial test / CD
# Procedure: Hydrogel Formation. Peptide solutions of O5 were prepared at 1% by weight (4.2 mM) in 149 mM sucrose and 0.5×HBSS. This buffer system was chosen to be consistent with prior MDP experiments and find optimum gelling conditions for future in vivo and in vitro work. Peptide solutions were sonicated using a Microson Ultrasonic Cell Disruptor with a 2 mm microprobe. The instrument frequency was 22.5 kHz and a power output up to 10 watts (RMS) was used. Solutions were sonicated at room temperature for 1 or 10 cycles, where each cycle consisted of 10 pulses and 1 min relaxation time between cycles. For the study of hydrogelation of O5, K2 and E2 at different pH values and ionic strength, 1% by weight peptide solutions were prepared in deionized water, PBS, or HBSS. pH was adjusted using HCl or NaOH 0.1 M solutions.
# [2] = 3D culture cytocompatibility, Calcein AM / Ethidium homodimer-1 viability and cell morphology; type: cell-based; conditions: mouse; day 1 after encapsulation, 1 wt.% hydrogel; read-out: percentage of viable cells
# Procedure: (§1) Cytocompatibility and cell viability studies. All cell culture materials, not otherwise specified, were purchased from Gibco, Life Technologies. NIH-3T3 fibroblast cells were cultured in Dulbecco's Modified Eagle Medium (DMEM) supplemented with 10% Fetal Bovine Serum (FBS), 2% L-glutamine (200 mM), 1% sodium pyruvate (100 mM), and 1% pen-strep solution (5000 units/mL of penicillin and 5 mg/mL of streptomycin, Sigma-Aldrich, St. Louis, MO). Cells were maintained at 37° C. and 5% CO2 with humidity and split when reaching 80%-90% confluency by treatment with 0.25% trypsin-EDTA and neutralization with complete media. Cells were centrifuged for 6 min at 1600 rpm, then the cell pellet was dispersed in HBSS, counted and adjusted to the required concentration. 3D cell culture in K2 hydrogel was achieved by mixing a 2% by weight peptide stock solution in 298 mM sucrose with a cell suspension of 2×10^6 cells/mL in HBSS. The final concentration was 1% by weight K2 hydrogel in 149 mM sucrose and 0.5×HBSS with 1×10^6 cells/mL. For O5 peptide, hydrogel was prepared by sonication using only 90% of the required 149 mM sucrose-0.5×HBSS to obtain a 1% by weight concentration, the remaining 10% was added as a cell suspension, and mixed by pipetting into the gel to obtain a final concentration of 1×10^6 cells/mL evenly distributed though the volume of the hydrogel. 70 μL of seeded hydrogels were cultured in a Lab-Tek 16-well glass chamber ([…], Thermo Fisher, Rochester, NY) with 200 μL of medium and fed every 2 days by replacing 100 μL with fresh media. Cell viability was analyzed using a live/dead viability kit (Invitrogen, Thermo Fisher, Carlsbad, CA). At specific time points, the medium was removed, and gels were rinsed with 1×PBS, then 100 μL of staining solution containing 2 μM Calcein AM and 4 μM Ethidium homodimer-1 in DPBS were added. Cells were incubated from 15 to 30 min and imaged using a Nikon A1 Rsi fluorescent confocal microscope (Nikon Instruments, Tokyo, Japan). Three z-stack images of 100 μm deep per sample were taken at 20× using a 488 nm green channel and 561 nm red channel lasers. Images were processed with NIS Element and live/dead cell counting was performed on Imaris 3D/4D Image Processing software (Bitplane, Concord, MA).
# (§2) To evaluate the cell morphology, hydrogels were rinsed with PBS and fixed with 10% buffered formalin for 30 min Cells were treated with 0.5% Triton X for 10 min and 100 mM glycine for 10 min, followed by 10% Bovine Serum Albumin (BSA) in HBSS block solution. Then cells were stained for filamentous actin with Alexa Fluor® 488-Phalloidin and for the nuclei with ProLong® Gold Antifade DAPI mounting media. Cell in the hydrogels were analyzed by confocal microscopy using a 40× water objective and processed as described.
# NIH-3T3 fibroblasts = assay: as above; type: cell-based
# Procedure: as §1, §2
# [3] = Solubility of peptides in water; type: physicochemical
# [4] = Secondary structure estimation from circular dichroism in TFE, least square linear method; type: physicochemical; conditions: TFE at 25° C., 1 wt.%
# Procedure: Circular Dichroism (CD) spectroscopy. For secondary structure characterization, peptide solutions of 1% by weight (molar concentration is included in Table 2) were prepared in 2,2,2-trifluoroethanol (TFE, Sigma Aldrich, St. Louis, MO). CD spectra acquisition was performed in a CD Jasco J-810 spectropolarimeter (Jasco Inc., Easton, MD) using a 0.01 mm cuvette. Data were collected at room temperature from 180 to 250 nm at a speed of 50 nm/min, with a 0.1 nm data pitch and the spectra were averaged over 5 scans. To study the hydrogelation of O5, 1% by weight peptide solutions were made in 149 mM sucrose solution in 0.5× Hank's Balanced Salt Solution (HBSS, Life Technologies) and analyzed as previously described.
# To estimate the secondary structure of O peptide series, data fitting using the least square linear method was performed in MATLAB (Mathworks, Natick, MA). (Hyp)6, O1(SL)6O1 and K2(SL)6K2 were used as basis spectra for polyproline type II, β-sheet and α-helix, respectively (FIG. 7).
solubility [3] [µg/mL],% PPII [4] [%],% α-helix [4] [%],% β-sheet [4] [%],Predominant Structure [4],Compound,further results
–,–,–,–,–,"CC(=O)N[C@@H](CCCCN)C(=O)N[C@@H](CCCCN)C(=O)N[C@@H](CO)C(=O)N[C@@H](CC(C)C)C(=O)N[C@@H](CO)C(=O)N[C@@H](CC(C)C)C(=O)N[C@@H](CO)C(=O)N[C@@H](CC(C)C)C(=O)N[C@@H](CO)C(=O)N[C@@H](CC(C)C)C(=O)N[C@@H](CO)C(=O)N[C@@H](CC(C)C)C(=O)N[C@@H](CO)C(=O)N[C@@H](CC(C)C)C(=O)N[C@@H](CCCCN)C(=O)N[C@@H](CCCCN)C(N)=O [Peptide K2, Ac-KKSLSLSLSLSLSLKK-CONH2, reference compound]","hydrogel formation at acidic, neutral and basic pH [1]: dependent on pH; also recorded: forms a gel at pH 11; hydrogel formation at acidic, neutral and basic pH ([1]; listed as K2(SL)6K2): gels only forming at neutral pH or at elevated ionic strength; viability at 24 h, 1 % by weight [2]: ~20%; percentage of viable cells (NIH-3T3 fibroblasts; day 3 compared with day 1): relatively unchanged; cytotoxicity / viability over the culture (NIH-3T3 fibroblasts; days 1 to 5, 1 wt.% hydrogel): somewhat cytotoxic during the first days of cell culture; cell proliferation / viable cell density in the gel (NIH-3T3 fibroblasts; up to day 5): by day 5 cell density is significantly higher than days 1 and 3"
< 500,0,0,100,β-sheet,"CC(=O)N1C[C@H](O)C[C@H]1C(=O)N[C@@H](CO)C(=O)N[C@@H](CC(C)C)C(=O)N[C@@H](CO)C(=O)N[C@@H](CC(C)C)C(=O)N[C@@H](CO)C(=O)N[C@@H](CC(C)C)C(=O)N[C@@H](CO)C(=O)N[C@@H](CC(C)C)C(=O)N[C@@H](CO)C(=O)N[C@@H](CC(C)C)C(=O)N[C@@H](CO)C(=O)N[C@@H](CC(C)C)C(=O)N1C[C@H](O)C[C@H]1C(N)=O [Peptide O1, Ac-OSLSLSLSLSLSLO-CONH2] (Ac-[Hyp]SLSLSLSLSLSL[Hyp]-NH2)",–
< 500,29.3,41.9,28.8,α-helix,"CC(=O)N1C[C@H](O)C[C@H]1C(=O)N1C[C@H](O)C[C@H]1C(=O)N[C@@H](CO)C(=O)N[C@@H](CC(C)C)C(=O)N[C@@H](CO)C(=O)N[C@@H](CC(C)C)C(=O)N[C@@H](CO)C(=O)N[C@@H](CC(C)C)C(=O)N[C@@H](CO)C(=O)N[C@@H](CC(C)C)C(=O)N[C@@H](CO)C(=O)N[C@@H](CC(C)C)C(=O)N[C@@H](CO)C(=O)N[C@@H](CC(C)C)C(=O)N1C[C@H](O)C[C@H]1C(=O)N1C[C@H](O)C[C@H]1C(N)=O [Peptide O2, Ac-OOSLSLSLSLSLSLOO-CONH2] (Ac-[Hyp][Hyp]SLSLSLSLSLSL[Hyp][Hyp]-NH2)",–
< 500,38.4,36.4,25.2,PPII/α-helix,"CC(=O)N1C[C@H](O)C[C@H]1C(=O)N1C[C@H](O)C[C@H]1C(=O)N1C[C@H](O)C[C@H]1C(=O)N[C@@H](CO)C(=O)N[C@@H](CC(C)C)C(=O)N[C@@H](CO)C(=O)N[C@@H](CC(C)C)C(=O)N[C@@H](CO)C(=O)N[C@@H](CC(C)C)C(=O)N[C@@H](CO)C(=O)N[C@@H](CC(C)C)C(=O)N[C@@H](CO)C(=O)N[C@@H](CC(C)C)C(=O)N[C@@H](CO)C(=O)N[C@@H](CC(C)C)C(=O)N1C[C@H](O)C[C@H]1C(=O)N1C[C@H](O)C[C@H]1C(=O)N1C[C@H](O)C[C@H]1C(N)=O [Peptide O3, Ac-OOOSLSLSLSLSLSLOOO-CONH2] (Ac-[Hyp][Hyp][Hyp]SLSLSLSLSLSL[Hyp][Hyp][Hyp]-NH2)",–
< 500,41.8,41.2,17,PPII/α-helix,"CC(=O)N1C[C@H](O)C[C@H]1C(=O)N1C[C@H](O)C[C@H]1C(=O)N1C[C@H](O)C[C@H]1C(=O)N1C[C@H](O)C[C@H]1C(=O)N[C@@H](CO)C(=O)N[C@@H](CC(C)C)C(=O)N[C@@H](CO)C(=O)N[C@@H](CC(C)C)C(=O)N[C@@H](CO)C(=O)N[C@@H](CC(C)C)C(=O)N[C@@H](CO)C(=O)N[C@@H](CC(C)C)C(=O)N[C@@H](CO)C(=O)N[C@@H](CC(C)C)C(=O)N[C@@H](CO)C(=O)N[C@@H](CC(C)C)C(=O)N1C[C@H](O)C[C@H]1C(=O)N1C[C@H](O)C[C@H]1C(=O)N1C[C@H](O)C[C@H]1C(=O)N1C[C@H](O)C[C@H]1C(N)=O [Peptide O4, Ac-OOOOSLSLSLSLSLSLOOOO-CONH2] (Ac-[Hyp][Hyp][Hyp][Hyp]SLSLSLSLSLSL[Hyp][Hyp][Hyp][Hyp]-NH2)",–
–,48.5,40.2,11.4,PPII,"CC(=O)N1C[C@H](O)C[C@H]1C(=O)N1C[C@H](O)C[C@H]1C(=O)N1C[C@H](O)C[C@H]1C(=O)N1C[C@H](O)C[C@H]1C(=O)N1C[C@H](O)C[C@H]1C(=O)N1C[C@H](O)C[C@H]1C(=O)N[C@@H](CO)C(=O)N[C@@H](CC(C)C)C(=O)N[C@@H](CO)C(=O)N[C@@H](CC(C)C)C(=O)N[C@@H](CO)C(=O)N[C@@H](CC(C)C)C(=O)N[C@@H](CO)C(=O)N[C@@H](CC(C)C)C(=O)N[C@@H](CO)C(=O)N[C@@H](CC(C)C)C(=O)N[C@@H](CO)C(=O)N[C@@H](CC(C)C)C(=O)N1C[C@H](O)C[C@H]1C(=O)N1C[C@H](O)C[C@H]1C(=O)N1C[C@H](O)C[C@H]1C(=O)N1C[C@H](O)C[C@H]1C(=O)N1C[C@H](O)C[C@H]1C(=O)N1C[C@H](O)C[C@H]1C(N)=O [Peptide O6, Ac-OOOOOOSLSLSLSLSLSLOOOOOO-CONH2] (Ac-[Hyp][Hyp][Hyp][Hyp][Hyp][Hyp]SLSLSLSLSLSL[Hyp][Hyp][Hyp][Hyp][Hyp][Hyp]-NH2)","state of the peptide at 10 mg/mL ([1]; 10 mg/mL): viscous solution; hydrogelation in cell culture media ([1]; 1% by weight in 149 mM sucrose and 0.5×HBSS, ultrasonication): dissolves to form a viscous solution"
–,–,–,–,–,"Ac-EESLSLSLSLSLSLEE-NH2 [Peptide E2, Ac-EESLSLSLSLSLSLEE-CONH2, reference compound]","hydrogel formation at acidic, neutral and basic pH [1]: dependent on pH; also recorded: forms a gel at acidic pH and undergoes phase separation; hydrogel formation at acidic, neutral and basic pH ([1]; listed as E2(SL)6E2): gels only forming at neutral pH or at elevated ionic strength"
